Experimental data: patent US5262439A (priority 1992, dated 1993)
One block for each molecule: values may come before it.

Tests used:
[1] = system: LDL incubated with mouse peritoneal macrophages; assay: Ability of macrophages to oxidize LDL after preincubation with probucol or diglutaryl probucol (TBARS); type: cell-based
Procedure: (§1) After 48 hours the cells were washed 3 times with 3 ml of Ham's F-10 and then subjected to incubation with ^125 I-LDL (1100 μg/ml) in 2 ml of Ham's F-10 for 20 hours. TBARS and subsequent macrophage degradation were determined. The results are averages from a triplicate determination from a representative set.
(§2) After several washings with Ham's F-10, the cells were then incubated with 200 μg of ^125 I-LDL in 2 ml. of Ham's F-10 for 24 hours. […] However, because the probucol was obviously not in solution and might remain absorbed to the cell surface even after washing, it is possible that residual probucol on the cell surface accounted for the apparent protection during the second incubation, i.e., probucol from the cell surface might transfer into the LDL during the first part of the second incubation.
(§3) Then the cells were thoroughly washed to remove any extracellular inhibitors. Specifically, they were washed three times with 3 ml of F-10 containing 10% fetal calf serum and then incubated with labeled LDL for an additional 24 hours. […] The values given are from a typical experiment from three or more separate experiments.

[2] = system: LDL incubated with mouse peritoneal macrophages; assay: Macrophage degradation of LDL previously incubated with pretreated macrophages (biological modification); type: cell-based
Procedure: as §1, §2, §3

[3] = system: LDL incubated with endothelial cells (EC); assay: Ability of endothelial cells (EC) to induce LDL oxidation after pretreatment (TBARS); type: cell-based; settings: Set A, 3 hours at 37° C., LDL 24 hours
Procedure: as §3

[4] = system: LDL incubated with endothelial cells (EC); assay: Macrophage degradation of LDL previously incubated with pretreated endothelial cells (biological modification); type: cell-based; settings: Set A, 3 hours at 37° C., LDL 24 hours
Procedure: as §3

LDL [5] = assay: Inhibition of oxidative modification of LDL, compound present during 24 hour incubation; type: cell-based
macrophages = assay: Uptake of ^14 C-labeled water-soluble derivative by macrophages; type: cell-based, mouse; settings: for Cell associated ^14 C-radioactivity: 3 hours at 37° C.
Procedure: (§4) The cells were then washed three times with DME. […] The cells were dissolved in 1 ml of 0.01% Triton X-100 before the determination of radioactivity. Values for macrophages represent averages of duplicate determinations from one of two separate trials. Values for endothelial cells are from four individual cell incubations.

endothelial cells [6] = assay: Uptake of ^14 C-labeled water-soluble derivative by endothelial cells; type: cell-based; settings: 5 nmol added, 3 hours at 37° C., four individual cell incubations
Procedure: as §4

endothelial cells [7] = assay: Uptake, retention and release of probucol by endothelial cells incubated with ^14 C-labeled diglutaryl probucol; type: cell-based
Procedure: (§5) Nevertheless, after two subsequent incubations with LDL at 100 μg/ml for 24 hours each, 30-45% of the incorporated radioactivity was still associated with the cells. […] Thus, cells enriched in probucol, also released the antioxidant into the medium which may offer additional protection against oxidation. The rate of release of probucol from cells was not followed in these studies.

[8] = system: LDL incubated with endothelial cells; assay: Oxidation of LDL recovered from the medium of diglutaryl probucol-pretreated endothelial cells; type: cell-based; settings: endothelial cells preincubated with 25 nmol for 3 hours
Procedure: as §5

LDL [9] = assay: Subsequent copper modification of LDL recovered from pretreated endothelial cells; type: biochemical
Procedure: as §5

[10] = Hydrolysis to free probucol; type: physicochemical
Text: A particularly preferred embodiment of the present invention is a class of dicarboxylic acid esters of probucol compounds which can be dissolved as sodium or potassium salts.
(§6) The product was purified by silicic acid column chromatography using increasing amounts of ether in hexane. The purified product gave a single spot on TLC (Rf 0.18) distinct from the parent compound (Rf 0.68). Upon alkaline hydrolysis, the compound yielded free probucol.

Solubility = type: physicochemical
Procedure: as §6
More than 96% of the labeled derivative readily went into the solution as the sodium salt and when incubated with macrophages was effectively taken up by the cells.

[11] = cited from earlier work
endothelial cells [12] = settings: cited from earlier work
[13] = system: LDL receptor-deficient rabbits; settings: cited from earlier work
rat = settings: given orally for some time before tying off a renal artery; cited from earlier work
LDL [14] = settings: cited from earlier work
[15] = Set B, macrophages pretreated with 10 μM, 3 hours at 37° C., LDL 24 hours
[16] = Set B, macrophages pretreated with 20 μM, 3 hours at 37° C., LDL 24 hours
[17] = Set B, macrophages pretreated with 30 μM, 3 hours at 37° C., LDL 24 hours
[18] = macrophages pretreated with 500 nmol/ml probucol in ethanol, 48 hours, then LDL
[19] = EC pretreated with 100 μM (probucol in ethanol)

Cell associated radioactivity in the form of the precursor, probucol diglutarate (macrophages; at 60 minutes): about half
Cell associated ^14 C-radioactivity (macrophages; macrophages, 5 nmol added): 2.5 nmol
Cell associated ^14 C-radioactivity (macrophages; macrophages, 10 nmol added): 3.7 nmol
Cell associated ^14 C-radioactivity (macrophages; macrophages, 15 nmol added): 4.2 nmol
Cell associated ^14 C-radioactivity (macrophages; macrophages, 20 nmol added): 5.2 nmol
Cell associated ^14 C-radioactivity (macrophages; macrophages, 25 nmol added): 6.5 nmol
Added radioactivity associated with the cells (macrophages; macrophages, after 2 hours): 25-30%
Cell associated ^14 C-radioactivity (endothelial cells [6]): 1.9 ± 0.14 nmol
Incorporated radioactivity still associated with the cells (endothelial cells [7]; 50-200 nmol, after two subsequent incubations with LDL at 100 μg/ml for 24 hours each): 30-45%
Hydrolysis in the course of incubation ([10]; 24 hour incubation, medium): almost completely hydrolyzed
Hydrolysis in aqueous solution ([10]; sodium salt in aqueous solution): slow hydrolysis
Solubility in organic solvents (Solubility; acid form): soluble in organic solvents
Labeled derivative going into solution (Solubility; as the sodium salt): More than 96%
SMILES: CC(C)(Sc1cc(C(C)(C)C)c(OC(=O)CCCC(=O)O)c(C(C)(C)C)c1)Sc1cc(C(C)(C)C)c(OC(=O)CCCC(=O)O)c(C(C)(C)C)c1 [diglutaryl probucol, probucol diglutarate]
TBARS [1, 15]: 5.3 nmol/mg protein
TBARS [1, 16]: 4.1 nmol/mg protein
TBARS [1, 17]: 3.3 nmol/mg protein
Inhibition of LDL modification by pretreated cells ([1]; concentrations as low as 10 μM, 3 hours pretreatment): inhibited the modification completely
Macrophage degradation [2, 15]: 2.2 μg/5 h per mg cell protein
Macrophage degradation [2, 16]: 1.6 μg/5 h per mg cell protein
Macrophage degradation [2, 17]: 1.4 μg/5 h per mg cell protein
TBARS ([3]; EC pretreated with 25 μM): 12.1 nmol/mg protein
TBARS ([3]; EC pretreated with 50 μM): 6.5 nmol/mg protein
Macrophage degradation ([4]; EC pretreated with 25 μM): 1.5 μg/5 h per mg cell protein
Macrophage degradation ([4]; EC pretreated with 50 μM): 1.3 μg/5 h per mg cell protein
inhibition at 2.5 µM (LDL [5]): > 50%
Amount associated with the cells (macrophages; macrophages, after 2 hours): 2.5-6.5 nmol of probucol/~40 μg of cell protein
Release of free probucol into the medium (endothelial cells [7]; endothelial cells incubated with 50-200 nmol, 24 hour incubation after washings): considerable release of free probucol into the medium
Oxidation of LDL recovered from the medium [8]: absence of oxidation
Modification of recovered LDL upon subsequent incubation with 5 μM copper (LDL [9]; endothelial cells preincubated with 25 nmol for 3 hours): readily modified
Modification of recovered LDL upon subsequent incubation with 5 μM copper (LDL [9]; endothelial cells preincubated with 50-200 nmol): resistant to modification
Solubility in sodium bicarbonate solution (Solubility; sodium bicarbonate solution, after removal of organic solvent): can be dissolved in sodium bicarbonate solution

Probucol released into the medium (endothelial cells [7]; 24 hour incubation with LDL, 50-200 nmol diglutaryl probucol): about 7 nmol
Probucol incorporated into the cells (endothelial cells [7]; endothelial cells, 50-200 nmol diglutaryl probucol): more than 15 nmol
Solubility in medium (Solubility; 500 nmol/ml added in ethanol, medium grossly milky): very limited solubility
SMILES: CC(C)(Sc1cc(C(C)(C)C)c(O)c(C(C)(C)C)c1)Sc1cc(C(C)(C)C)c(O)c(C(C)(C)C)c1 [probucol, 4,4'-(isopropylidenedithio) bis(2,6-di-tert-butylphenol), reference compound]
LDL modification by cells as compared to control cells not pretreated ([1]; cells preincubated with probucol 500 nmol/ml): modified LDL poorly as compared to control cells
TBARS [1, 18]: 11.2 nmol/mg protein
Macrophage degradation [2, 18]: 2.1 μg/5 h per mg cell protein
TBARS [3, 19]: 42.5 nmol/mg protein
Macrophage degradation [4, 19]: 6.4 μg/5 h per mg cell protein
Solubility in lipid [11]: highly lipid soluble
Solubility in water ([11]; water): almost insoluble in water
Incorporation into endothelial cells (endothelial cells [12]; 50 μM probucol, 24 h): less than 1 μg of probucol/10^6 cells
Rate of entrance into cells in culture (endothelial cells [12]; cells in culture): slow
Progression of atherosclerosis [13]: slow the progression of atherosclerosis
Post-perfusion injury in the kidney (rat): can limit the post-perfusion injury in the kidney
Oxidative modification of LDL (LDL [14]): block oxidative modification of LDL
